# Laboratory results taken from article PMC2791876, “Comparison of effects of green tea catechins on apicomplexan hexose transporters and mammalian orthologues” (Molecular and Biochemical Parasitology, 2009).
# Columns and labels:
# [1] = molecular target: T1, Plasmodium falciparum hexose transporter (PfHT) (Plasmodium falciparum, UniProt O97467); settings: cited from earlier work; for Km: substrate Km, read-out: Km for transport via PfHT
# T1 construct: expressed in transfected cells; host or cells: Xenopus laevis oocytes
# T1 sequence (O97467 1-504): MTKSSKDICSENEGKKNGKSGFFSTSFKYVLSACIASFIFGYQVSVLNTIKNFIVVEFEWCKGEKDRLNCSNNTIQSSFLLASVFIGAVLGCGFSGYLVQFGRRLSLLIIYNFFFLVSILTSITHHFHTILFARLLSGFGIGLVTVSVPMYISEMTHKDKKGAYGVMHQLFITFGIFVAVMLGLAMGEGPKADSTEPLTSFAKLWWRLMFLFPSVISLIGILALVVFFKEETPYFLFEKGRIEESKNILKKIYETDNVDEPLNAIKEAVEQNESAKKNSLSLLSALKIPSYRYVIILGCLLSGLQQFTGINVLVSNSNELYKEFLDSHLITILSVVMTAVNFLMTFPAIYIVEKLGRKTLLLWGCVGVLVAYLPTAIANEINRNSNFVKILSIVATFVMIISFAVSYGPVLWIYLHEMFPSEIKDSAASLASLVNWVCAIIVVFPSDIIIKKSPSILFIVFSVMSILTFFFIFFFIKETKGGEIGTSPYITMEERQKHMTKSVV
# GLUT5 = molecular target: T2, GLUT5 (Homo sapiens, UniProt P22732); test: D-fructose transport via GLUT5 expressed in Xenopus laevis oocytes; type: cell-based, mammalian; settings: D-fructose (100 μM) transport, X. laevis oocytes, room temperature; mean ± SEM (n ≥ 3)
# T2 construct: expressed in transfected cells; host or cells: Xenopus laevis oocytes
# T2 sequence (P22732 1-501): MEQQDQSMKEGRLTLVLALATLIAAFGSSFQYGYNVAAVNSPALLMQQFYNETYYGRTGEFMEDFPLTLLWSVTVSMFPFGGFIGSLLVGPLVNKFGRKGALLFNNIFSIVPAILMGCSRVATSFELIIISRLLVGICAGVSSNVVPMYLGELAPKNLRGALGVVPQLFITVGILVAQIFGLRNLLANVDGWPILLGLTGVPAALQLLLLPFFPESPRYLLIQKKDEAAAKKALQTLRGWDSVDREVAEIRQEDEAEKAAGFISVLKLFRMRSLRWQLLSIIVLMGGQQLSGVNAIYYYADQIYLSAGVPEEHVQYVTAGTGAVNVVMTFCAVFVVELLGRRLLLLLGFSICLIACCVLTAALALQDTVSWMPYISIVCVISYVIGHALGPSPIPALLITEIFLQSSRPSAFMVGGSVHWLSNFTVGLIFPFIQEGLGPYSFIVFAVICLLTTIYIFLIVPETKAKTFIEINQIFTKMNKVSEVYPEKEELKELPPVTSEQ
# Procedure: (§1) The effect of the green tea catechins, EC, ECG, EGC and EGCG, on D-glucose transport via PfHT, GLUT1 and the Babesia bovis hexose transporter 1 (BboHT1; [12]) and D-fructose transport via GLUT5 was assayed in Xenopus laevis oocytes expressing each of the hexose transporters, using methods described previously.
# [2] = molecular target: T3, Babesia bovis hexose transporter 1 (BboHT1) (Babesia bovis, UniProt B0LKY8); test: D-glucose transport via BboHT1 expressed in Xenopus laevis oocytes; type: cell-based; settings: X. laevis oocytes, room temperature, mean ± SEM (n ≥ 3)
# Procedure: as §1, with “previously. The compounds were tested initially at a concentration of 0.5 mM (data not shown).” for “previously.”
# [3] = molecular target: T4, mammalian facilitative glucose transporter 1 (GLUT1) (Homo sapiens, UniProt P11166); test: D-glucose transport via GLUT1 expressed in Xenopus laevis oocytes; type: cell-based; settings: D-glucose (38 μM) transport, X. laevis oocytes, room temperature; mean ± SEM (n ≥ 3)
# T4 construct: expressed in transfected cells; host or cells: Xenopus laevis oocytes
# T4 sequence (P11166 1-492): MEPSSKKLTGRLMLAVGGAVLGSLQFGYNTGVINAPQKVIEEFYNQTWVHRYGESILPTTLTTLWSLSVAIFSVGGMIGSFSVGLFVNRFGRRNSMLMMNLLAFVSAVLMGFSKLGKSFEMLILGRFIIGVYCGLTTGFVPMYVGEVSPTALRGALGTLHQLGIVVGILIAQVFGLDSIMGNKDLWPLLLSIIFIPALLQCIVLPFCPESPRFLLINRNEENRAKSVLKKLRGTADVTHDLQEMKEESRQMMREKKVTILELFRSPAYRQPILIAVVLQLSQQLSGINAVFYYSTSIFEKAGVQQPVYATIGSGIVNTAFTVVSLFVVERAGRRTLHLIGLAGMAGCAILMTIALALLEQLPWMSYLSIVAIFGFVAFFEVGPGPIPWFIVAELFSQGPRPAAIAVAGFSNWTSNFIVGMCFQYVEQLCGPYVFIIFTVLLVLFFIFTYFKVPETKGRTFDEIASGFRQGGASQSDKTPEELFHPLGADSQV
# Procedure: as §1
# [4] = system: Babesia divergens (strain Rouen 1987); test: Babesia divergens growth inhibition; type: cell-based; settings: B. divergens, mean ± SEM; for inhibition of parasite growth: 200 μM, n = 3
# Procedure: (§2) Furthermore, given that catechins are competitive inhibitors of D-glucose transport mediated by GLUT1 [8], the relationship between external D-glucose concentration and IC50 values was examined. […] The effect of catechins was also tested on Babesia divergens (strain Rouen 1987) growth as described.
# [5] = molecular target: T1, Plasmodium falciparum hexose transporter (PfHT); test: cell-based; settings: D-glucose (38 μM) transport, X. laevis oocytes, room temperature; mean ± SEM (n ≥ 3)
# Procedure: as §1
# L323N BboHT1 = test: D-glucose uptake by mutant L323N BboHT1 in X. laevis oocytes; type: cell-based, Babesia bovis; settings: 0.5 mM catechin; L323N vs wild-type; P < 0.001
# PfHT = molecular target: T5, PfHT (Plasmodium falciparum, UniProt O97467); test: 3-O-methyl-D-glucose (3OMG) transport via PfHT in X. laevis oocytes; type: cell-based; settings: 3OMG (17 μM), mean ± SEM, n = 3
# T5 construct: expressed in transfected cells; host or cells: Xenopus laevis oocytes
# GLUT1 = molecular target: GLUT1; design: method as in PMID 12970085; settings: human erythrocytes, zero-trans D-glucose efflux; read-out: Ki for D-glucose transport via GLUT1, published previously; cited from earlier work
# P. falciparum (3D7) = test: P. falciparum growth in vitro; type: cell-based, Plasmodium falciparum; settings: P. falciparum 3D7, 12 mM D-glucose, 48 h; mean ± SEM (n ≥ 3); read-out: IC50 parasite growth
# Procedure: as §2
# [6] = molecular target: T3, Babesia bovis hexose transporter 1 (BboHT1); design: method as in PMID 18638508; settings: cited from earlier work
# B. bovis parasites = system: B. bovis parasites; design: method as in PMID 18638508; settings: cited from earlier work
# T3 sequence (B0LKY8 entry or part of it): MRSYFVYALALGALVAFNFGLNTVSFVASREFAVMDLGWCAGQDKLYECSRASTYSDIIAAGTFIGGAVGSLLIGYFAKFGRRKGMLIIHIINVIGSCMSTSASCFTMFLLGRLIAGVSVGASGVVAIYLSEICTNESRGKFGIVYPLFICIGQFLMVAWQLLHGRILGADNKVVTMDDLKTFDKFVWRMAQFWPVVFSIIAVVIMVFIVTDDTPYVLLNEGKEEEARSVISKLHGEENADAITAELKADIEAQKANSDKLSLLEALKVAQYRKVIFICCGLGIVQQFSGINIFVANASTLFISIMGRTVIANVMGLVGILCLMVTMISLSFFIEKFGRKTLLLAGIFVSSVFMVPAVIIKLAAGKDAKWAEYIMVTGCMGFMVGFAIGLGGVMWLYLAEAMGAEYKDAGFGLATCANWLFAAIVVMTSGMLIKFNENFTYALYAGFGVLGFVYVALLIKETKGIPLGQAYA
Molecule,Ki (GLUT5) [µM],Ki [2] [µM],Ki [3] [µM],Ki [5] [µM],other results
"CO[C@@H]([C@H](O)[C@H](O)CO)[C@@H](O)C=O [3OMG, 3-O-methyl-D-glucose]",,,,,Km [1]: 1300 µM
OC[C@H]1OC(O)[C@H](O)[C@@H](O)[C@@H]1O (stereo partly drawn) [D-glucose],,,,,Km [1]: 1000 µM
"Oc1cc(O)c2c(c1)O[C@H](c1ccc(O)c(O)c1)[C@H](O)C2 [EC, (−)-epicatechin]",> 500,108 ± 52,~500,> 500,"inhibition at 200 µM ([4]; Babesia divergens, n = 3, read-out: inhibition of parasite growth): 66 ± 14%; effect on D-glucose uptake by mutant versus wild-type BboHT1 (L323N BboHT1): affected significantly less"
"O=C(O[C@@H]1Cc2c(O)cc(O)cc2O[C@@H]1c1ccc(O)c(O)c1)c1cc(O)c(O)c(O)c1 [ECG, (−)-epicatechin-gallate]",117 ± 54,> 500,68 ± 18,45 ± 10,Ki (PfHT): 18 ± 3 µM; Ki (GLUT1): 0.14 µM; IC50 (P. falciparum (3D7)): 32 ± 1 µM
"Oc1cc(O)c2c(c1)O[C@H](c1cc(O)c(O)c(O)c1)[C@H](O)C2 [EGC, (−)-epigallocatechin]",> 500,168 ± 83,> 500,> 500,inhibition of parasite growth [4]: 30 ± 10%
C=CCCCCCCCCCO[C@H]1[C@H](O)[C@@H](CO)OC(O)[C@@H]1O (stereo partly drawn) [compound 3361],,,,,inhibition of BboHT1 [6]: good inhibitor; killing of B. bovis parasites in culture (B. bovis parasites): did not kill; inhibition of D-glucose transport via PfHT (mode) [1]: specific and competitive inhibitor
(−)-epigallocatechin-gallate [EGCG],113 ± 48,> 500,105 ± 18,90 ± 24,inhibition of parasite growth [4]: 71 ± 2%; Ki (GLUT1): 0.97 µM; IC50 (P. falciparum (3D7)): 17 ± 3 µM
